The values that follow come from ChEMBL document CHEMBL3877309, “Determination of binding modes and binding constants for the complexes of 6H-pyrido[4,3-b]carbazole derivatives with DNA” (Bioorg Med Chem, 2017).

Molecules are shown by their SMILES. Calls of active or inactive are those of the source. No cut-off for these calls is given here.

One assay has as its system Salmonidae. Description: Binding affinity to salmon sperm DNA assessed as DNA intercalation at 0.04 mole fraction after 5 mins by UV-Vis spectroscopic method.
The nature of assay [1]: Binding affinity to synthetic biotin-labeled 30-mer GC-rich duplex DNA in pH 7.4 EDTA buffer solution in presence of 0.05 M NaCl at 25 degC by QCM sensogram analysis.
A short description of assay [2]: Binding affinity to synthetic biotin-labeled 30-mer GC-rich duplex DNA in pH 7.4 EDTA buffer solution assessed as dissociation rate constant in presence of 0.05 M NaCl at 25 degC by QCM sensogram analysis.
Assay [3] is described as follows: Binding affinity to synthetic biotin-labeled 30-mer GC-rich duplex DNA in pH 7.4 EDTA buffer solution assessed as association rate constant in presence of 0.05 M NaCl at 25 degC by QCM sensogram analysis.
The nature of assay [4]: Binding affinity to synthetic biotin-labeled 30-mer AT-rich duplex DNA in pH 7.4 EDTA buffer solution assessed as dissociation rate constant in presence of 0.05 M NaCl at 25 degC by QCM sensogram analysis.
The nature of assay [5]: Binding affinity to synthetic biotin-labeled 30-mer GC-rich duplex DNA in pH 7.4 EDTA buffer solution assessed as ratio of association rate constant to dissociation rate constant in presence of 0.05 M NaCl at 25 degC by QCM sensogram analysis.
Assay [6] in a line: Binding affinity to synthetic biotin-labeled 30-mer AT-rich duplex DNA in pH 7.4 EDTA buffer solution assessed as association rate constant in presence of 0.05 M NaCl at 25 degC by QCM sensogram analysis.
The nature of assay [7]: Binding affinity to synthetic biotin-labeled 30-mer AT-rich duplex DNA in pH 7.4 EDTA buffer solution in presence of 0.05 M NaCl at 25 degC by QCM sensogram analysis.
Assay [8] in a line: Binding affinity to synthetic biotin-labeled 30-mer AT-rich duplex DNA in pH 7.4 EDTA buffer solution assessed as ratio of association rate constant to dissociation rate constant in presence of 0.05 M NaCl at 25 degC by QCM sensogram analysis.
A short description of assay [9]: Binding affinity to synthetic biotin-labeled 30-mer GC-rich duplex DNA in pH 7.8 Tris-Hcl buffer solution assessed as dissociation rate constant in presence of 0.1 M NaCl at 25 degC by QCM sensogram analysis.
Assay [10] in a line: Binding affinity to synthetic biotin-labeled 30-mer GC-rich duplex DNA in pH 7.8 Tris-Hcl buffer solution assessed as ratio of association rate constant to dissociation rate constant in presence of 0.1 M NaCl at 25 degC by QCM sensogram analysis.
Assay [11] can be described thus: Binding affinity to synthetic biotin-labeled 30-mer AT-rich duplex DNA in pH 7.8 Tris-Hcl buffer solution assessed as association rate constant in presence of 0.1 M NaCl at 25 degC by QCM sensogram analysis.
A short description of assay [12]: Binding affinity to synthetic biotin-labeled 30-mer GC-rich duplex DNA in pH 7.8 Tris-Hcl buffer solution assessed as association rate constant in presence of 0.1 M NaCl at 25 degC by QCM sensogram analysis.
Assay [13] in a line: Binding affinity to synthetic biotin-labeled 30-mer AT-rich duplex DNA in pH 7.8 Tris-Hcl buffer solution assessed as ratio of association rate constant to dissociation rate constant in presence of 0.1 M NaCl at 25 degC by QCM sensogram analysis.
The nature of assay [14]: Binding affinity to synthetic biotin-labeled 30-mer AT-rich duplex DNA in pH 7.8 Tris-Hcl buffer solution assessed as dissociation rate constant in presence of 0.1 M NaCl at 25 degC by QCM sensogram analysis.

As for `Cc1c2cc[n+](C)cc2c(C)c2c1[nH]c1ccc(O)cc12`, the outcome in the assay on Salmonidae was Active. The results for the Ka in assay [1] and in assay [7] were 47.2 ×10⁵ /M and 35.1 ×10⁵ /M, respectively. Also, the K was determined as 2.01 ×10⁻³ /s in [2], 1.28 ×10⁴ /M/s in assay [3], 8.05 ×10⁻³ /s in assay [4] and 0.78 ×10⁴ /M/s in assay [6]. Moreover, the figures for the Ratio in assay [5] and in assay [8] were 6.37 ×10⁶ /M and 0.97 ×10⁶ /M, respectively.

Regarding `CC[n+]1c(-c2ccccc2)c2cc(N)ccc2c2ccc(N)cc21`, the K in [9] worked out at 210 ×10⁻³ /s; in [11], 0.17 ×10⁴ /M/s; in assay [12], 1.2 ×10⁴ /M/s; in assay [14], 150 ×10⁻³ /s. Moreover, the results for the Ratio in [10] and in assay [13] were 0.056 ×10⁶ /M and 0.011 ×10⁶ /M, respectively.
